What was measured:
Assay in all cases: normalised viability (% of control), CellTiter-Blue; higher = more viable cells (about 100 = DMSO control)
Details in all cases: incubation time: 72 h
DU-4475 [1] = tested on: DU-4475
In short: (§1)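 Breast cancer cell lines in 20 µl suspension were seeded onto 384-well plates pre-loaded with compound dissolved in 5 µl medium, then incubated 72 h. CellTiter-Blue reagent (2.5 µl) was added for 2 h at 37 °C and fluorescence read at 560/590 nm. Each plate was normalised to vehicle (100) and a positive kill control (0), with Z'-factor quality control. The value is normalised viability at one listed concentration of the series.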

BT-474 [2] = tested on: BT-474
In short: as §1

MFM-223 [3] = tested on: MFM-223
In short: as §1

CAL-51 [4] = tested on: CAL-51
In short: as §1

HDQ-P1 [5] = tested on: HDQ-P1
In short: as §1

HCC1937 [6] = tested on: HCC1937
In short: as §1

MDA-MB-453 [7] = tested on: MDA-MB-453
In short: as §1

MDA-MB-468 [8] = tested on: MDA-MB-468
In short: as §1

Hs578T [9] = tested on: Hs578T
In short: as §1

SK-BR-3 [10] = tested on: SK-BR-3
In short: as §1

CAL-120 [11] = tested on: CAL-120
In short: as §1

CAL-148 [12] = tested on: CAL-148
In short: as §1

DU-4475 [13] = tested on: DU-4475; remark: listed apart in the source
Protocol: (§2)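 DSRT, CellTiter-Blue viability, 72 h incubation. Signal is normalised to DMSO and benzethonium chloride controls. Value is the normalised response at dose 3.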

HCC1143 = tested on: HCC1143
Protocol: as §2

BT-474 [14] = tested on: BT-474; remark: listed apart in the source
Protocol: as §2

BT-549 = tested on: BT-549
Protocol: as §2

MDA-MB-231 = tested on: MDA-MB-231
Protocol: as §2

HCC1599 = tested on: HCC1599
Protocol: as §2

MFM-223 [15] = tested on: MFM-223; remark: listed apart in the source
Protocol: as §2

CAL-51 [16] = tested on: CAL-51; remark: listed apart in the source
Protocol: as §2

MDA-MB-436 = tested on: MDA-MB-436
Protocol: as §2

HDQ-P1 [17] = tested on: HDQ-P1; remark: listed apart in the source
Protocol: as §2

HCC1937 [18] = tested on: HCC1937; remark: listed apart in the source
Protocol: as §2

MDA-MB-453 [19] = tested on: MDA-MB-453; remark: listed apart in the source
Protocol: as §2

MDA-MB-468 [20] = tested on: MDA-MB-468; remark: listed apart in the source
Protocol: as §2

Hs578T [21] = tested on: Hs578T; remark: listed apart in the source
Protocol: as §2

SK-BR-3 [22] = tested on: SK-BR-3; remark: listed apart in the source
Protocol: as §2

CAL-85-1 = tested on: CAL-85-1
Protocol: as §2

CAL-120 [23] = tested on: CAL-120; remark: listed apart in the source
Protocol: as §2

CAL-148 [24] = tested on: CAL-148; remark: listed apart in the source
Protocol: as §2

NCC(=O)CCC(=O)O [Aminolevulinic acid]
Details	normalised viability [%]
BT-474 [2], 10 nM	115
BT-474 [2], 1000 nM	119
BT-474 [2], 10000 nM	131
BT-474 [14], 100 nM	114
BT-549, 100 nM	104
CAL-51 [4], 3 nM	105
CAL-51 [4], 30 nM	100
CAL-51 [4], 100 nM	92.9
CAL-51 [16], 10 nM	101
CAL-85-1, 10 nM	98.4
CAL-120 [11], 10 nM	89.6
CAL-120 [11], 1000 nM	103
CAL-120 [11], 10000 nM	104
CAL-120 [23], 100 nM	99.7
CAL-148 [12], 3 nM	93.8
CAL-148 [12], 30 nM	101
CAL-148 [12], 100 nM	98.8
CAL-148 [24], 10 nM	104
DU-4475 [1], 3 nM	104
DU-4475 [1], 30 nM	77.5
DU-4475 [1], 100 nM	110
DU-4475 [13], 10 nM	104
HCC1143, 100 nM	88.9
HCC1599, 100 nM	87.9
HCC1937 [6], 10 nM	86.8
HCC1937 [6], 1000 nM	84.2
HCC1937 [6], 10000 nM	86.4
HCC1937 [18], 100 nM	91
HDQ-P1 [5], 3 nM	95.2
HDQ-P1 [5], 30 nM	105
HDQ-P1 [5], 100 nM	110
HDQ-P1 [17], 10 nM	100
Hs578T [9], 10 nM	108
Hs578T [9], 1000 nM	104
Hs578T [9], 10000 nM	96.3
Hs578T [21], 100 nM	101
MDA-MB-231, 100 nM	110
MDA-MB-436, 100 nM	104
MDA-MB-453 [7], 3 nM	110
MDA-MB-453 [7], 30 nM	93.5
MDA-MB-453 [7], 100 nM	90.2
MDA-MB-453 [19], 10 nM	99.1
MDA-MB-468 [8], 10 nM	101
MDA-MB-468 [8], 1000 nM	111
MDA-MB-468 [8], 10000 nM	102
MDA-MB-468 [20], 100 nM	103
MFM-223 [3], 10 nM	92.2
MFM-223 [3], 1000 nM	91.3
MFM-223 [3], 10000 nM	87.3
MFM-223 [15], 100 nM	91.7
SK-BR-3 [10], 10 nM	96.3
SK-BR-3 [10], 1000 nM	108
SK-BR-3 [10], 10000 nM	101
SK-BR-3 [22], 100 nM	99

CN[C@@H]1C[C@H]2O[C@@](C)([C@@H]1OC)n1c3ccccc3c3c4c(c5c6ccccc6n2c5c31)C(=O)N[C@H]4O [UCN-01]
Details	normalised viability [%]
BT-474 [2], 10 nM	108
BT-474 [2], 1000 nM	44.2
BT-474 [2], 10000 nM	2.62
BT-474 [14], 100 nM	94.6
BT-549, 100 nM	52.3
CAL-51 [4], 3 nM	99.7
CAL-51 [4], 30 nM	87.2
CAL-51 [4], 100 nM	62.6
CAL-51 [16], 10 nM	97.5
CAL-85-1, 10 nM	86.9
CAL-120 [11], 10 nM	72.8
CAL-120 [11], 1000 nM	17.7
CAL-120 [11], 10000 nM	9.93
CAL-120 [23], 100 nM	30.4
CAL-148 [12], 3 nM	92.2
CAL-148 [12], 30 nM	105
CAL-148 [12], 100 nM	106
CAL-148 [24], 10 nM	98.5
DU-4475 [1], 3 nM	109
DU-4475 [1], 30 nM	81.5
DU-4475 [1], 100 nM	78.3
DU-4475 [13], 10 nM	101
HCC1143, 100 nM	50.2
HCC1599, 100 nM	56.3
HCC1937 [6], 10 nM	71.7
HCC1937 [6], 1000 nM	25.6
HCC1937 [6], 10000 nM	7.84
HCC1937 [18], 100 nM	42
HDQ-P1 [5], 3 nM	82.2
HDQ-P1 [5], 30 nM	66.8
HDQ-P1 [5], 100 nM	39.6
HDQ-P1 [17], 10 nM	72.9
Hs578T [9], 10 nM	88.3
Hs578T [9], 1000 nM	7.74
Hs578T [9], 10000 nM	0.41
Hs578T [21], 100 nM	14.4
MDA-MB-231, 100 nM	37
MDA-MB-436, 100 nM	75.1
MDA-MB-453 [7], 3 nM	98
MDA-MB-453 [7], 30 nM	86.8
MDA-MB-453 [7], 100 nM	65
MDA-MB-453 [19], 10 nM	106
MDA-MB-468 [8], 10 nM	126
MDA-MB-468 [8], 1000 nM	7.27
MDA-MB-468 [8], 10000 nM	6.64
MDA-MB-468 [20], 100 nM	56.2
MFM-223 [3], 10 nM	103
MFM-223 [3], 1000 nM	42.1
MFM-223 [3], 10000 nM	13.5
MFM-223 [15], 100 nM	66.9
SK-BR-3 [10], 10 nM	101
SK-BR-3 [10], 1000 nM	16.5
SK-BR-3 [10], 10000 nM	3.68
SK-BR-3 [22], 100 nM	44.2

CC(=O)Nc1ccc(C(=O)Nc2ccccc2N)cc1 [CI-994]
Details	normalised viability [%]
BT-474 [2], 1 nM	104
BT-474 [2], 100 nM	117
BT-474 [2], 1000 nM	97.4
BT-474 [14], 10 nM	106
BT-549, 10 nM	96.9
CAL-51 [4], 0.3 nM	94.6
CAL-51 [4], 3 nM	94.6
CAL-51 [4], 10 nM	96.7
CAL-51 [16], 1 nM	94
CAL-85-1, 1 nM	91.7
CAL-120 [11], 1 nM	99.9
CAL-120 [11], 100 nM	106
CAL-120 [11], 1000 nM	88.9
CAL-120 [23], 10 nM	114
CAL-148 [12], 0.3 nM	104
CAL-148 [12], 3 nM	93.9
CAL-148 [12], 10 nM	101
CAL-148 [24], 1 nM	98.1
DU-4475 [1], 0.3 nM	86
DU-4475 [1], 3 nM	81
DU-4475 [1], 10 nM	107
DU-4475 [13], 1 nM	93.9
HCC1143, 10 nM	111
HCC1599, 10 nM	108
HCC1937 [6], 1 nM	86.9
HCC1937 [6], 100 nM	101
HCC1937 [6], 1000 nM	89.9
HCC1937 [18], 10 nM	108
HDQ-P1 [5], 0.3 nM	113
HDQ-P1 [5], 3 nM	125
HDQ-P1 [5], 10 nM	108
HDQ-P1 [17], 1 nM	113
Hs578T [9], 1 nM	119
Hs578T [9], 100 nM	115
Hs578T [9], 1000 nM	92.5
Hs578T [21], 10 nM	97.8
MDA-MB-231, 10 nM	103
MDA-MB-436, 10 nM	94.2
MDA-MB-453 [7], 0.3 nM	100
MDA-MB-453 [7], 3 nM	100
MDA-MB-453 [7], 10 nM	105
MDA-MB-453 [19], 1 nM	113
MDA-MB-468 [8], 1 nM	99.6
MDA-MB-468 [8], 100 nM	115
MDA-MB-468 [8], 1000 nM	100
MDA-MB-468 [20], 10 nM	108
MFM-223 [3], 1 nM	107
MFM-223 [3], 100 nM	109
MFM-223 [3], 1000 nM	102
MFM-223 [15], 10 nM	97.5
SK-BR-3 [10], 1 nM	103
SK-BR-3 [10], 100 nM	97.8
SK-BR-3 [10], 1000 nM	99.4
SK-BR-3 [22], 10 nM	78.2

Source: the supplement of paper PMC4862054
